Key:
CD46 expression [1] = assay: CD46 expression by RNA-sequencing in unpaired pre-treatment and post-treatment tumor biopsies; format: in vivo, human
CD46 expression [2] = assay: CD46 expression by RNA-sequencing in paired tumor biopsies before and after therapy; conditions: for CD46 expression diff (post minus pre) / Percent Change in CD46 expression / CD46 expression, Post-Treatment Biopsy / CD46 expression, Pre-Treatment Biopsy: paired biopsies; for CD46 expression, Post-Treatment Biopsy / CD46 expression, Pre-Treatment Biopsy: RNA-seq log2-transformed counts;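 as to all read-outs here: FFPE human tumor biopsies, exome-capture RNA-seq, reads aligned to GRCh37, counts normalized for GC content, length and depth, summed per gene, log2-transformed, samples paired before versus after therapy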
Protocol: Gene expression was determined by RNA-sequencing from formalin-fixed, paraffin-embedded (FFPE) tumor samples using an exome capture-based protocol. Briefly, total nucleic acid was extracted from FFPE solid tumor samples. The RNA sample was treated with DNAse and reverse transcribed. cDNA was captured with a custom probe set targeting the human exome. A library was prepared from the captured cDNA and sequenced on the Illumina platform. Sequence read were aligned to GRCh37 using Kallisto and normalized to quantify gene expression. Specifically, transcript counts were corrected for GC content and length using quantile normalization and adjusted for sequencing depth via a size factor method. Normalized counts in protein coding transcripts covered by the exome panel were then summed to obtain gene-level counts. Subsequent expression analyses were performed on log2-transformed counts.

[3] = Prostate Cancer, Post minus Pre, unpaired biopsies, log2-transformed counts
[4] = Prostate Cancer, post- vs pre-treatment unpaired biopsies
[5] = Prostate Cancer, post-treatment biopsies, unpaired, RNA-seq log2-transformed normalized counts
[6] = Breast Cancer, Post minus Pre, unpaired biopsies, log2-transformed counts
[7] = Breast Cancer, post- vs pre-treatment unpaired biopsies
[8] = Breast Cancer, post-treatment biopsies, unpaired, RNA-seq log2-transformed normalized counts
[9] = Colorectal Cancer, Post minus Pre, unpaired biopsies, log2-transformed counts
[10] = Colorectal Cancer, post- vs pre-treatment unpaired biopsies
[11] = Colorectal Cancer, post-treatment biopsies, unpaired, RNA-seq log2-transformed normalized counts
[12] = Endocrine Tumor, Post minus Pre, unpaired biopsies, log2-transformed counts
[13] = Endocrine Tumor, post- vs pre-treatment unpaired biopsies
[14] = Endocrine Tumor, post-treatment biopsies, unpaired, RNA-seq log2-transformed normalized counts
[15] = Esophageal Cancer, Post minus Pre, unpaired biopsies, log2-transformed counts
[16] = Esophageal Cancer, post- vs pre-treatment unpaired biopsies
[17] = Esophageal Cancer, post-treatment biopsies, unpaired, RNA-seq log2-transformed normalized counts
[18] = Non-Small Cell Lung Cancer, post minus pre, unpaired biopsies
[19] = Non-Small Cell Lung Cancer, post vs pre, unpaired biopsies
[20] = Non-Small Cell Lung Cancer, post-treatment biopsies, log2-transformed RNA-seq counts

C[C@]12CC[C@H](O)CC1=CC[C@@H]1[C@@H]2CC[C@]2(C)C(c3cccnc3)=CC[C@@H]12 [abiraterone]
CD46 expression diff (CD46 expression [1]; [3]): −0.07
CD46 expression Percentage change (CD46 expression [1]; [4]): −1.1%
CD46 expression Post (CD46 expression [1]; [5]): 6.10
CD46 expression diff (post minus pre) (CD46 expression [2]; Prostate Cancer): 0.29
Percent Change in CD46 expression (CD46 expression [2]; Prostate Cancer): 5.1%

Cc1nc(NC(=O)N2CCC[C@H]2C(N)=O)sc1-c1ccnc(C(C)(C)C(F)(F)F)c1 [alpelisib]
CD46 expression diff (CD46 expression [1]; [6]): 0.13
CD46 expression Percentage change (CD46 expression [1]; [7]): 2.0%
CD46 expression Post (CD46 expression [1]; [8]): 6.67
CD46 expression diff (post minus pre) (CD46 expression [2]; Breast Cancer): −0.01
Percent Change in CD46 expression (CD46 expression [2]; Breast Cancer): −0.1%
CD46 expression, Post-Treatment Biopsy (CD46 expression [2]; Breast Cancer): 6.57

CC(C)(C#N)c1cc(Cn2cncn2)cc(C(C)(C)C#N)c1 [anastrozole]
CD46 expression diff (CD46 expression [1]; [6]): 0.06
CD46 expression Percentage change (CD46 expression [1]; [7]): 0.9%
CD46 expression Post (CD46 expression [1]; [8]): 6.41
CD46 expression diff (post minus pre) (CD46 expression [2]; Breast Cancer): 0.41
Percent Change in CD46 expression (CD46 expression [2]; Breast Cancer): 6.7%
CD46 expression, Post-Treatment Biopsy (CD46 expression [2]; Breast Cancer): 6.49
subjects whose paired biopsies showed increased CD46 expression (CD46 expression [2]; breast cancer, 15 of 19 subjects, FIG. 3): 79%

CC(O)(CS(=O)(=O)c1ccc(F)cc1)C(=O)Nc1ccc(C#N)c(C(F)(F)F)c1 (stereo not drawn) [bicalutamide]
CD46 expression diff (CD46 expression [1]; [3]): −0.06
CD46 expression Percentage change (CD46 expression [1]; [4]): −0.9%
CD46 expression diff (post minus pre) (CD46 expression [2]; Prostate Cancer): −0.24
Percent Change in CD46 expression (CD46 expression [2]; Prostate Cancer): −3.8%
CD46 expression, Post-Treatment Biopsy (CD46 expression [2]; Prostate Cancer): 6.08

CO[C@H]1C(=O)[C@]2(C)[C@@H](OC)C[C@H]3OC[C@@]3(OC(C)=O)[C@H]2[C@H](OC(=O)c2ccccc2)[C@]2(O)C[C@H](OC(=O)[C@H](O)[C@@H](NC(=O)OC(C)(C)C)c3ccccc3)C(C)=C1C2(C)C [cabazitaxel]
CD46 expression diff (CD46 expression [1]; [3]): 0.09
CD46 expression Percentage change (CD46 expression [1]; [4]): 1.6%
CD46 expression diff (post minus pre) (CD46 expression [2]; Prostate Cancer): 0.07
Percent Change in CD46 expression (CD46 expression [2]; Prostate Cancer): 1.2%
CD46 expression, Post-Treatment Biopsy (CD46 expression [2]; Prostate Cancer): 5.93

CCCCCOC(=O)Nc1nc(=O)n([C@@H]2O[C@H](C)[C@@H](O)[C@H]2O)cc1F [capecitabine]
CD46 expression diff (CD46 expression [1]; Biliary Cancer, Post minus Pre, unpaired biopsies, log2-transformed counts): 0.10
CD46 expression Percentage change (CD46 expression [1]; Biliary Cancer, post- vs pre-treatment unpaired biopsies): 1.8%
CD46 expression Post (CD46 expression [1]; Biliary Cancer, post-treatment biopsies, unpaired, RNA-seq log2-transformed normalized counts): 5.87
CD46 expression diff (CD46 expression [1]; [6]): −0.07
CD46 expression Percentage change (CD46 expression [1]; [7]): −1.2%
CD46 expression Post (CD46 expression [1]; [8]): 6.15
CD46 expression diff (CD46 expression [1]; [9]): 0.05
CD46 expression Percentage change (CD46 expression [1]; [10]): 0.8%
CD46 expression Post (CD46 expression [1]; [11]): 6.43
CD46 expression diff (CD46 expression [1]; [12]): 0.06
CD46 expression Percentage change (CD46 expression [1]; [13]): 1.1%
CD46 expression Post (CD46 expression [1]; [14]): 5.66
CD46 expression diff (CD46 expression [1]; [15]): 0.05
CD46 expression Percentage change (CD46 expression [1]; [16]): 0.8%
CD46 expression Post (CD46 expression [1]; [17]): 6.02
CD46 expression diff (CD46 expression [1]; Gastric Cancer, Post minus Pre, unpaired biopsies, log2-transformed counts): −0.04
CD46 expression Percentage change (CD46 expression [1]; Gastric Cancer, post- vs pre-treatment unpaired biopsies): −0.7%
CD46 expression Post (CD46 expression [1]; Gastric Cancer, post-treatment biopsies, unpaired, RNA-seq log2-transformed normalized counts): 5.73
CD46 expression diff (CD46 expression [1]; Pancreatic Cancer, Post minus Pre, unpaired biopsies, log2-transformed counts): 0.07
CD46 expression Percentage change (CD46 expression [1]; Pancreatic Cancer, post- vs pre-treatment unpaired biopsies): 1.2%
CD46 expression Post (CD46 expression [1]; Pancreatic Cancer, post-treatment biopsies, unpaired, RNA-seq log2-transformed normalized counts): 5.93
CD46 expression diff (post minus pre) (CD46 expression [2]; Breast Cancer): −0.06
Percent Change in CD46 expression (CD46 expression [2]; Breast Cancer): −0.9%
CD46 expression, Post-Treatment Biopsy (CD46 expression [2]; Breast Cancer): 6.23
CD46 expression diff (post minus pre) (CD46 expression [2]; Colorectal Cancer): 0.06
Percent Change in CD46 expression (CD46 expression [2]; Colorectal Cancer): 1.0%
CD46 expression diff (post minus pre) (CD46 expression [2]; Pancreatic Cancer): 0.16
Percent Change in CD46 expression (CD46 expression [2]; Pancreatic Cancer): 2.8%
CD46 expression, Post-Treatment Biopsy (CD46 expression [2]; Pancreatic Cancer): 5.98

N.N.O=C([O-])C1(C(=O)[O-])CCC1.[Pt+2] [carboplatin]
CD46 expression diff (CD46 expression [1]; Bladder Cancer, Post minus Pre, unpaired biopsies, log2-transformed counts): 0.14
CD46 expression Percentage change (CD46 expression [1]; Bladder Cancer, post- vs pre-treatment unpaired biopsies): 2.3%
CD46 expression Post (CD46 expression [1]; Bladder Cancer, post-treatment biopsies, unpaired, RNA-seq log2-transformed normalized counts): 6.12
CD46 expression diff (CD46 expression [1]; [6]): −0.07
CD46 expression Percentage change (CD46 expression [1]; [7]): −1.1%
CD46 expression Post (CD46 expression [1]; [8]): 6.00
CD46 expression diff (CD46 expression [1]; [9]): 0.59
CD46 expression Percentage change (CD46 expression [1]; [10]): 10.3%
CD46 expression Post (CD46 expression [1]; [11]): 6.35
CD46 expression diff (CD46 expression [1]; [12]): 0.22
CD46 expression Percentage change (CD46 expression [1]; [13]): 3.9%
CD46 expression Post (CD46 expression [1]; [14]): 5.90
CD46 expression diff (CD46 expression [1]; Endometrial Cancer, Post minus Pre, unpaired biopsies, log2-transformed counts): 0.01
CD46 expression Percentage change (CD46 expression [1]; Endometrial Cancer, post- vs pre-treatment unpaired biopsies): 0.2%
CD46 expression Post (CD46 expression [1]; Endometrial Cancer, post-treatment biopsies, unpaired, RNA-seq log2-transformed normalized counts): 5.83
CD46 expression diff (CD46 expression [1]; [15]): −0.11
CD46 expression Percentage change (CD46 expression [1]; [16]): −1.8%
CD46 expression Post (CD46 expression [1]; [17]): 5.79
CD46 expression diff (CD46 expression [1]; Head and Neck Squamous Cell Carcinoma, Post minus Pre, unpaired biopsies, log2-transformed counts): 0.11
CD46 expression Percentage change (CD46 expression [1]; Head and Neck Squamous Cell Carcinoma, post- vs pre-treatment unpaired biopsies): 2.0%
CD46 expression Post (CD46 expression [1]; Head and Neck Squamous Cell Carcinoma, post-treatment biopsies, unpaired, RNA-seq log2-transformed normalized counts): 5.69
CD46 expression diff (CD46 expression [1]; Non-Small Cell Lung Cancer, Post minus Pre, unpaired biopsies, log2-transformed counts): −0.08
CD46 expression Percentage change (CD46 expression [1]; Non-Small Cell Lung Cancer, post- vs pre-treatment unpaired biopsies): −1.2%
CD46 expression Post (CD46 expression [1]; Non-Small Cell Lung Cancer, post-treatment biopsies, unpaired, RNA-seq log2-transformed normalized counts): 6.10
CD46 expression diff (CD46 expression [1]; Ovarian Cancer, Post minus Pre, unpaired biopsies, log2-transformed counts): −0.01
CD46 expression Percentage change (CD46 expression [1]; Ovarian Cancer, post- vs pre-treatment unpaired biopsies): −0.2%
CD46 expression Post (CD46 expression [1]; Ovarian Cancer, post-treatment biopsies, unpaired, RNA-seq log2-transformed normalized counts): 5.73
CD46 expression diff (CD46 expression [1]; [3]): −0.03
CD46 expression Percentage change (CD46 expression [1]; [4]): −0.5%
CD46 expression Post (CD46 expression [1]; [5]): 5.92
CD46 expression diff (post minus pre) (CD46 expression [2]; Breast Cancer): −0.08
Percent Change in CD46 expression (CD46 expression [2]; Breast Cancer): −1.2%
CD46 expression, Post-Treatment Biopsy (CD46 expression [2]; Breast Cancer): 6.06
CD46 expression, Pre-Treatment Biopsy (CD46 expression [2]; Breast Cancer): 6.14
CD46 expression diff (post minus pre) (CD46 expression [2]; Endometrial Cancer): 0.30
Percent Change in CD46 expression (CD46 expression [2]; Endometrial Cancer): 5.1%
CD46 expression, Pre-Treatment Biopsy (CD46 expression [2]; Endometrial Cancer): 5.95
CD46 expression diff (post minus pre) (CD46 expression [2]; Non-Small Cell Lung Cancer): −0.06
Percent Change in CD46 expression (CD46 expression [2]; Non-Small Cell Lung Cancer): −1.0%
CD46 expression, Post-Treatment Biopsy (CD46 expression [2]; Non-Small Cell Lung Cancer): 6.07
CD46 expression diff (post minus pre) (CD46 expression [2]; Ovarian Cancer): 0.01
Percent Change in CD46 expression (CD46 expression [2]; Ovarian Cancer): 0.2%
CD46 expression, Post-Treatment Biopsy (CD46 expression [2]; Ovarian Cancer): 5.67
CD46 expression, Pre-Treatment Biopsy (CD46 expression [2]; Ovarian Cancer): 5.66

CCC1=C[C@@H]2CN(C1)Cc1c([nH]c3ccccc13)[C@@](C(=O)OC)(c1cc3c(cc1OC)N(C)[C@H]1[C@@](O)(C(=O)OC)[C@H](OC(C)=O)[C@]4(CC)C=CCN5CC[C@]31[C@@H]54)C2 [vinorelbine]
CD46 expression diff (CD46 expression [1]; [6]): −0.13
CD46 expression Percentage change (CD46 expression [1]; [7]): −2.0%
CD46 expression Post (CD46 expression [1]; [8]): 6.24
CD46 expression diff (CD46 expression [1]; [18]): −0.20
CD46 expression Percentage change (CD46 expression [1]; [19]): −3.3%
CD46 expression Post (CD46 expression [1]; [20]): 5.98

O=P(O)(O)C(O)(Cn1ccnc1)P(=O)(O)O [zoledronic acid]
CD46 expression diff (CD46 expression [1]; [6]): 0.41
CD46 expression Percentage change (CD46 expression [1]; [7]): 6.4%
CD46 expression Post (CD46 expression [1]; [8]): 6.78

ado-trastuzumab emtansine
CD46 expression Percentage change (CD46 expression [1]; in vivo): −0.8%
CD46 expression Post (CD46 expression [1]; in vivo): 6.20
CD46 expression diff (CD46 expression [1]; in vivo): −0.05

aflibercept
CD46 expression diff (CD46 expression [1]; [9]): 0.21
CD46 expression Percentage change (CD46 expression [1]; [10]): 3.3%
CD46 expression Post (CD46 expression [1]; [11]): 6.58

denosumab
CD46 expression diff (CD46 expression [1]; [6]): 0.40
CD46 expression Percentage change (CD46 expression [1]; [7]): 6.2%
CD46 expression Post (CD46 expression [1]; [8]): 6.82

olaratumab
CD46 expression diff (CD46 expression [1]; Sarcoma, Post minus Pre, unpaired biopsies, log2-transformed counts): 0.11
CD46 expression Percentage change (CD46 expression [1]; Sarcoma, post- vs pre-treatment unpaired biopsies): 2.3%
CD46 expression Post (CD46 expression [1]; Sarcoma, post-treatment biopsies, unpaired, RNA-seq log2-transformed normalized counts): 5.10

pertuzumab
CD46 expression diff (CD46 expression [1]; [6]): −0.08
CD46 expression Percentage change (CD46 expression [1]; [7]): −1.3%
CD46 expression Post (CD46 expression [1]; [8]): 6.25

ramucirumab
CD46 expression diff (CD46 expression [1]; [18]): −0.17
CD46 expression Percentage change (CD46 expression [1]; [19]): −2.8%
CD46 expression Post (CD46 expression [1]; [20]): 6.13
CD46 expression Pre (CD46 expression [1]; Non-Small Cell Lung Cancer, pre-treatment biopsies, log2-transformed RNA-seq counts): 6.30
